Data as given in patent publication US4388236A, “Enkephalin-like compounds in bovine adrenal medulla” (Hoffmann-La Roche Inc., priority 1982, dated 1983).
Where “and” joins values, the source holds several entries; their conditions need not be identical. Equal entries are not always repeated. Entries after “also recorded” stand apart in the source; their conditions may differ. No end group written: not given here.

Legend:
mice [1] = assay: Tail flick response (analgesic assay); type: in vivo; parameters: tail flick response, Prior Injection Time (Control) Predose / tail flick response, Post Injection Time 2 min.: unit not given here; details: for tail flick response, Prior Injection Time (Control) Predose / tail flick response, Post Injection Time 5 / tail flick response, Post Injection Time 10 / Response (analgesic activity) / tail flick response, Post Injection Time 2 min.: individual mice; for tail flick response, Prior Injection Time (Control) Predose: before intracerebral ventrical injection; for tail flick response, Post Injection Time 5 / tail flick response, Post Injection Time 10 / No. of Mice Responsive/Total No. of Mice / Response (analgesic activity) / tail flick response, Post Injection Time 2 min.: intracerebral ventrical, Beta-endorphin 4.5nm, Arg6-Phe7 met-enkephalin 6 n moles; for tail flick response, Post Injection Time 5 / tail flick response, Post Injection Time 10 / No. of Mice Responsive/Total No. of Mice / Response (analgesic activity): Acetylcholine 20ng; for tail flick response, Post Injection Time 10 / Response (analgesic activity) / tail flick response, Post Injection Time 2 min.: Met Enk 120nm
Protocol: For the analgesic assay, mice were injected (intracerebral ventrical) with 6 n moles of the synthetic peptide (Tyr-Gly-Gly-Phe-Met-Arg-Phe). The tail flick response assay was carried out according to the method of Dayton, et al., Proc. Soc. […] The tail flick response (analgesic activity) was measured prior to injection and at 2,5 and 10 minutes post injection time. Results are tabulated in Table V. Further results are given in Inturris, et. al., Proc. Nat'l. Acad. Sci. (U.S.A.), 77,5512 (1980).

opiate receptor = biological target: T1, opiate receptor (Mus musculus, UniProt P32300); assay: Radioreceptor assay (opiate receptor binding activity)
T1 construct: endogenous in cells; host or cells: neuroblastoma x glioma hybrid cells (NG108-15)
Text: Extracts of bovine adrenal medulla (BAM) or chromaffin granules (CG) therefrom were obtained by conventional methods known in the art and were purified using gel filtration, high pressure liquid chromatography (HPLC) and fluorometric detection by method of Bohlen, P. et al., Anal. Biochem. 67, 437 (1975).
Opioid activities for peaks I-V were quantitatively determined by conventional means in radioreceptor assays before (Native) and after trypsin digestion of each of the peaks from BAM and CG sources.

[2] = test system: N-terminal directed Met-enkephalin antibody; assay: Radioimmunoassay with N-terminal directed Met-enkephalin antibody; type: binding; details: fractions from RP-18 of peak V; 1.3 g wet weight of chromaffin granules isolated from 30 g of adrenal medulla
Protocol: (§1) Radioimmunoassays were performed using a C-terminal directed Leu-enkephalinantibody and a N-terminal directed Met-enkephalin antibody. The characteristics of these antibodies and methods of use have been described previously and were followed in Lewis, R. V., et al., Biochem. Biophys. Res. Commun. 89, 822 (1979).

mice [3] = details: intracerebra-ventricular or intravenous administration to mice; cited from earlier work
rats = details: intracerebra-ventricular or intravenous administration to rats; cited from earlier work
[4] = test system: C-terminal directed Leu-enkephalin antibody; assay: Radioimmunoassay with C-terminal directed Leu-enkephalin antibody; type: binding; details: fractions from RP-18 of peak V; 1.3 g wet weight of chromaffin granules isolated from 30 g of adrenal medulla
Protocol: as §1

mice [5] = assay: Tail flick response (analgesic assay); type: in vivo; parameters: tail flick response, Prior Injection Time (Control) Predose / tail flick response, Post Injection Time 2 min.: unit not given here; details: individual mice

T1 sequence (P32300 whole entry): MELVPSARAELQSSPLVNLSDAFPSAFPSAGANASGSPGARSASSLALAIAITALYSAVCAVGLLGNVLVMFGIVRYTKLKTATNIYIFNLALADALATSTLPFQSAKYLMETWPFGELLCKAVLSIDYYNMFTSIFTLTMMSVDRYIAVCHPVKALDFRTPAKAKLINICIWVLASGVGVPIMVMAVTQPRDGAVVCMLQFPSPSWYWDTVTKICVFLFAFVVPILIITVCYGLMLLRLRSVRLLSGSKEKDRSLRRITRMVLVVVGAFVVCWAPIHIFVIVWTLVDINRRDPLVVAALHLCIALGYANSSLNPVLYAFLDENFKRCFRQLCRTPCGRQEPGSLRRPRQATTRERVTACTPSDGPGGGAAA

Compound	tail flick response, Prior Injection Time (Control) Predose (mice [1])	tail flick response, Post Injection Time 5 (mice [1])	tail flick response, Post Injection Time 10 (mice [1])	No. of Mice Responsive/Total No. of Mice (mice [1])	opiate receptor binding activity in radioreceptor assay (in words) (opiate receptor)	Response (analgesic activity) (mice [1])	also measured
CC(=O)OCC[N+](C)(C)C [Acetylcholine]	4.6 and 5.0 and 4.5	6.1 and > 10	> 10	3/3	–	–	–
CSCC[C@H](NC(=O)[C@H](Cc1ccccc1)NC(=O)CNC(=O)CNC(=O)[C@@H](N)Cc1ccc(O)cc1)C(=O)O [F-T-2]	–	–	–	–	most active tryptic peptide	–	–
CC(C)C[C@H](NC(=O)[C@H](Cc1ccccc1)NC(=O)CNC(=O)CNC(=O)[C@@H](N)Cc1ccc(O)cc1)C(=O)O [Leu-Ek, leucine enkephalin]	–	–	–	–	–	–	N-Terminal radioimmunoassay [2]: 0.4 nmoles/fraction; analgesia (mice [3]): weak and short term analgesia; analgesia (rats): weak and short term analgesia; C-Terminal radioimmunoassay [4]: 1.0 nmoles/fraction
CSCC[C@H](NC(=O)[C@H](Cc1ccccc1)NC(=O)CNC(=O)CNC(=O)[C@@H](N)Cc1ccc(O)cc1)C(=O)O [Met-Ek, methionine enkephalin]	–	–	–	–	–	Neg.	N-Terminal radioimmunoassay [2]: 1.0 nmoles/fraction; analgesia (mice [3]): weak and short term analgesia; analgesia (rats): weak and short term analgesia; tail flick response, Prior Injection Time (Control) Predose (mice [5]; before intracerebral ventrical injection, listed as Met Enk): 4.1 and 5.4 and 4.6; tail flick response, Post Injection Time 10 (mice [5]; intracerebral ventrical, Met Enk 120nm, Acetylcholine 20ng, Beta-endorphin 4.5nm, Arg6-Phe7 met-enkephalin 6 n moles): 6.3 and 5.9 and 5.0; tail flick response, Post Injection Time 2 min. (mice [5]; intracerebral ventrical, Met Enk 120nm, Beta-endorphin 4.5nm, Arg6-Phe7 met-enkephalin 6 n moles): 4.0 and 4.7; Radioreceptor (opiate receptor; fractions from RP-18 of peak V, 1.3 g wet weight of chromaffin granules isolated from 30 g of adrenal medulla): 1.0 nmoles/fraction; C-Terminal radioimmunoassay [4]: 0.03 nmoles/fraction
Beta-endorphin	4.0 and 4.7 and 4.2 and 5.4 and 4.4 and 4.3	> 10 and > 9 and 3.4 and 3.1	8 and > 10 and 3.8	5/7	–	Pos. and Neg.	tail flick response, Post Injection Time 2 min. (mice [1]): 5.9 and 3.0 and 4.4 and 3.8; tail flick response, Post Injection Time 20 (mice [5]; intracerebral ventrical, Beta-endorphin 4.5nm): > 10
YGGFMK [F-T-1]	–	–	–	–	opiate receptor binding activity	–	–
YGGFMK [Met-enkephalin-(Lys^6)]	–	–	–	–	–	–	binding to the receptor relative to Met-enkephalin (opiate receptor; from binding curves): 9%
YGGFMR [I-T-1]	–	–	–	–	active in the radioreceptor assay at high concentrations	–	–
YGGFMR [Met-enkephalin-(Arg^6)]	–	–	–	–	active in the radioreceptor assay at high concentrations; also recorded: binds very poorly	–	binding activity relative to Leu-enkephalin (opiate receptor): less than 3%
YGGFMRF [Arg^6 --Phe^7 met-enkephalin, Tyr-Gly-Gly-Phe-Met-Arg-Phe]	5.7 and 5.2 and 4.6 and 3.6 and 3.7 and 4.0	5.4 and 4.2 and 3.8 and 9.0 and 4.0	6.3 and 5.8 and > 10 and 5.0 and 4	4/8	–	Neg. and Pos. and neg.	tail flick response, Post Injection Time 2 min. (mice [1]): 4.9 and 4.6 and 4.3 and 4.0 and 3.4 and 4.5
